No end group written: not given here.
Experiments:
S. hominis = settings: S. hominis; planktonic; 18 hours
Description: Bacteria were grown in a shaking incubator at 37° C. and 160rpm in 50 ml BHI , using individual colonies retrieved from a fresh overnight TSA-sheep blood plate. The cultures were grown to a density of approximately 1×10^8cells/ml and then diluted to 5×10^5 cells/ml in CAMHB (Mc Farland 0.5). Each well contained 100p.I (50p.I of peptide containing MHB plus 50 μl inoculum). The final cell density was 1×10^5 to 5×10^5/ml. After addition of the cell suspension, plates were incubated at 37° C. for 18 to 24 hours. The optical density at 590 nm (OD590) of each well was measured after 5 seconds of shaking the plate using Perkin Elmer spectrophotometer (1420 Multilabel Counter Vicotr 3). […] Each well, where no growth was observed, was also plated on TSA-sheep blood agar plates, incubated at 37° C. overnight and visually inspected.
A microbroth dilution method was used with twofold serial dilutions in CAMHB (according to EMEA guidelines) was used for screening of peptide activity, with concentrations ranging from 0.3 μg/mIto 200 μg/ml.

Candida albicans SC5314 [1] = assay: C. albicans SC5314 adhesion on 96-well polystyrene plates (XTT reduction assay); format: cell-based; settings: 90 min adhesion at 37° C.
Description: In a next step, lower concentrations of peptide F9 (50 μM, 10 μM and 2.5 μM) were also tested. First, we elucidated the effect of peptide F9 during the period of adhesion (90 min at 37° C.). Then, we tested its effect on further biofilm development, by changing the medium with fresh RPMI1640-MOPS, in the absence of peptide for 48 h. Both assays were performed in 96-well polystyrene plates and quantified by the XTT reduction assay (see material and methods section).
In vitro C. albicans biofilm was studied on three different types of biomaterials, namely flat bottom 96-well polystyrene plate (Greiner Bio-One, Germany), silicone (CS Hyde, USA) and polyurethane triple lumen intravenous catheters (2.4mm diameter) (Arrow International Reading, USA). […] After that, the biofilms were washed twice with 1×PBS and quantified.
The metabolic activity of Candida cells within in vitro biofilms was studied using the XTT reduction assay. This method is based on colorimetric change of a specific substrate—XTT (2,3-bis(2-methoxy-4-nitro-5-sulpho-phenyl)-2H-tetrazolium-5-carboxanilide) (Sigma, USA) which is reduced to XTT formazan by mitochondrial dehydrogenases of metabolic active cells measured by spectrophotometer at 490 nm. […] The intensity of colorimetric change was measured by spectrophotometer (Spectra max Plus 384) at 490 nm. […]

[2] = system: Candida glabrata ATCC2001; assay: C. glabrata adhesion and biofilm formation on 96-well polystyrene plates (XTT); format: cell-based; settings: 96-well polystyrene plates in vitro
Text: The specificity of interferor peptide F9 was investigated for C. albicans as compared to a distant Candida spp., i.e. Candida glabrata ATCC2001, for biofilm formation inhibition in vitro. The beta-aggregation sequence of the F9 peptide ([…] (SEQ ID NO: 71)) is not present in C. glabrata—the most closely related sequence in C. glabrata is […] (SEQ ID NO: 73). […] We tested the effect of F9 against C. glabrata adhesion and biofilm formation on 96-well polystyrene plates in vitro.

Candida albicans SC5314 [3] = assay: Adherence of C. albicans SC5314 to epithelial cell line TR-146; format: cell-based; settings: adhesion 1 h
Description: As discussed herein before, C. albicans Als3 also plays a role in adherence and invasion to epithelial and endothelial cells. […] Here we investigated the effect of external application of interferor peptide F9 on C. albicans SC5314 adherence and invasion to epithelial cells. Thereto, Candida cells were incubated together with the human cells (epithelial cell line TR-146) in the presence of peptide F9 during adhesion (1 h) or invasion (3 h). The amount of adhered and internalized cells was determined by counting using epifluorescence.
C. albicans strains were grown in liquid YPD, succinate, pH 6.5 or YNB (4% D-glucose) at 30° C. in a shaking incubator overnight. Candida cells were washed three times with 1× PBS and determined to a final concentration 1×10^5 cells/ml in DMEM containing NaHCO3, D-glucose, Na-pyruvate and stable glutamine without FCS. The TR-146 were grown on 12 mm glass slides and inoculated with Candida cells. Different concentrations of positive peptide F9 (50 μM, 10 μM and 2.5 μM) and negative peptides F9_negat, 13 and 20 (50 μM) were tested on Candida adhesion to epithelial cells. Adhesion assay was allowed for 1 h at 37° C., 5% CO2. After adhesion, the cells were washed three times with 1× PBS to remove non-adherent cells and then fixed with 4% paraformaldehyde for 30 min at room temperature.
After extensive rinsing with 1× PBS, the cells were permeabilized in 0.5% Triton X-100 in water for 5 min, and subsequently stained with calcofluor white (dilution 1:100) for 15 min and further washed with water, three times for 10 min, at 30° C., 180 rpm. Coverslips were mounted inverted on a microscope slide and quantified under epifluorescence using a filter set to detect calcofluor white (filter for DAPI) (Leica DFC350 FX, Mannheim, Germany). The percentage of adhered cells was calculated as an average of attached Candida cells on one hundred areas spread over the entire surface of the coverslip.

Sequence | MIC (S. hominis) | adhesion of C. albicans SC5314 on polystyrene (Candida albicans SC5314 [1]; 2.5 μM peptide) | adhesion of C. albicans SC5314 on polystyrene (Candida albicans SC5314 [1]; 50 μM and 10 μM peptide) | C. glabrata adhesion and biofilm development [2] | decrease of Candida adhesion to epithelial cells compared to the control (Candida albicans SC5314 [3]; 2.5 μM) [%] | decrease of Candida adhesion to epithelial cells compared to the control (Candida albicans SC5314 [3]; 10 μM) | decrease of Candida adhesion to epithelial cells compared to the control (Candida albicans SC5314 [3]; 50 μM) [%]
RILLGLIRRGSRILLGLIRR [C30] | S. hominis: 3 μg/ml |  |  |  |  |  | 
RKLLFNLGSRNGIVIVATTR [F9] |  | dramatically decreased adhesion properties of Candida cells | almost completely abolished Candida attachment | did not interfere with C. glabrata adhesion and biofilm development | ~15 | approximately 20% | 40

Reference: patent US20220033448A1, “METHODS FOR AGGREGATION OF PROTEINS” (priority 2011, published 2022)
